Data published in article PMC8040520 (ACS chemical biology, 2020).

Test system: BolI
Assay: steady-state kinetics, CoA production
Format: biochemical, Bradyrhizobium oligotrophicum
Conditions: co-substrate SAM presumed; details in supplement

SMILES: CC(C)(COP(=O)(O)OP(=O)(O)OC[C@H]1O[C@@H](n2cnc3c(N)ncnc32)[C@H](O)[C@@H]1OP(=O)(O)O)[C@@H](O)C(=O)NCCC(=O)NCCSC(=O)/C=C/c1ccccc1 [cinnamoyl-CoA]
- Km: 3 µM
